Here are results for three molecules from EP1746104B1, “NOVEL SOLUBLE CD14 ANTIGEN” (MOCHIDA PHARMACEUTICAL CO., LTD., priority 2004, dated 2005).

Ends that are not written are not given here.

One experiment has as its system S68 antibody. The experiment is described as follows: Peptide blocking of S68 antibody binding to serum protein (specificity of S68 antibody). Also noted: species or system rabbit. Conditions: peptide 0, 0.1, 1, and 10 µg/mL; sera of sepsis patients and normal donors. From the text: For confirming the specificity of S68 antibody prepared in Example 1, the inventors studied whether blocking occurs by a peptide by the same assay as that of Example 3-(3). That is, S68 peptide (amino acid sequence at positions 53 to 68), synthetic polypeptide prepared by the same way as that of Example 1 (amino acid sequence at positions 53 to 58, amino acid sequence at positions 57 to 62, and amino acid sequence at positions 59 to 64), or negative control peptide (Cys Glu Gly Asn Gly Asn Asn Phe Glu Ser Arg Glu Ala Cys) was diluted to 0, 0.1, 1, and 10 µg/mL and 25 µL of each diluted solution was added to 25 µL of each of 50-fold diluted solutions of the sera obtained from patients suffering from sepsis and the sera of normal donors to initiate a competitive reaction by mixing with S68 antibody. After that, the levels of the soluble protein bound to S68 antibody without inhibition by any peptide were determined.
The above result confirmed that a protein being detected in blood by S68 antibody is specifically recognized by S68 antibody. In addition, the result also confirmed that the sequence recognized by the antibody requires a length of at least 7 amino acids because the inhibition can not be attained by three kinds of synthetic peptides (the number of amino acids: 6) corresponding to the partial peptides of S68 peptide.

Experiment [1] is described as follows: Measurement of chemically synthesized peptide with kit of Example 7-(3). It is filed as binding. From the text:
A peptide synthesizer ABI433A (Applied) was used and amino acid columns were then aligned according to the amino acid sequences to carry out automatic synthesis. The synthesized peptide was removed from a resin by the conventional method and then recovered by ether precipitation. The resultant peptide was re-dissolved in distilled water and then freeze-dried. After the dissolution, the crude peptide thus obtained was eluted through a linear gradient of 5-70% acetonitrile by the use of C18 reversed phase HPLC (CAPCELL-PAK, Shiseido Co., Ltd.). Consequently, a fraction containing a peptide of interest was collected. The collected fraction was freeze-dried and provided as a purified peptide. The purified peptide was dissolved in the diluent described in Example 7-(12) and then the solution was subjected to the measurement with the kit described in Example 7-(3).

For “CEGNGNNFESREAC (cysteine pairing not given here) [negative control peptide, reference compound]”, the “inhibition of the binding between S68 antibody and the soluble protein in serum” value in the experiment on S68 antibody is reported as “not inhibited”.

“S68 peptide: peptide having the sequence of SEQ ID NO: 2, positions 53 to 68 of SEQ ID NO: 3 (RVDADADPRQYADTVK)”: the “inhibition of the binding between S68 antibody and the soluble protein in serum” value with S68 antibody was “inhibited”.

B1: sCD14(1-70): chemically synthesized soluble polypeptide having amino acids at positions 1 to 70 on the N-terminal of human CD14 (peptide)
peptide: TTPEPCELDDEDFRCVCNFSEPQPDWSEAFQCVSAVEVEIHAGGLNLEPFLKRVDADADPRQYADTVKAL
On to B1, for which the “reaction with the kit described in Example 7-(3)” value in experiment [1] is listed as “strongly reacted”.
